Data: PubChem BioAssay (NCI)
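Five compound concentrations were applied to cells in 96-well plates for 48 hours; endpoints were derived by simple linear interpolation of the resulting dose-response curve. TGI marks complete inhibition of growth.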

Experiments:
Experiment in all cases: NCI-60 cell line screen, 48 h
KM12 colon = test system: KM12 colon
HOP-92 NSCLC = test system: HOP-92 NSCLC
HCT-15 colon = test system: HCT-15 colon
MCF7 breast = test system: MCF7 breast
OVCAR-3 ovarian = test system: OVCAR-3 ovarian
SNB-19 CNS = test system: SNB-19 CNS
A498 renal = test system: A498 renal
HT29 colon = test system: HT29 colon
RXF 393 renal = test system: RXF 393 renal
HL-60(TB) leukemia = test system: HL-60(TB) leukemia
LOX IMVI melanoma = test system: LOX IMVI melanoma
DU-145 prostate = test system: DU-145 prostate
NCI/ADR-RES ovarian = test system: NCI/ADR-RES ovarian
SK-MEL-2 melanoma = test system: SK-MEL-2 melanoma
CAKI-1 renal = test system: CAKI-1 renal
NCI-H522 lung = test system: NCI-H522 lung
OVCAR-8 ovarian = test system: OVCAR-8 ovarian
SK-MEL-5 melanoma = test system: SK-MEL-5 melanoma
SF-539 CNS = test system: SF-539 CNS
HS 578T breast = test system: HS 578T breast
NCI-H460 lung = test system: NCI-H460 lung
A549 NSCLC = test system: A549 NSCLC
OVCAR-5 ovarian = test system: OVCAR-5 ovarian
PC-3 prostate = test system: PC-3 prostate
SK-OV-3 ovarian = test system: SK-OV-3 ovarian
MALME-3M melanoma = test system: MALME-3M melanoma
M14 melanoma = test system: M14 melanoma
UACC-62 melanoma = test system: UACC-62 melanoma
SW-620 colon = test system: SW-620 colon
HCC-2998 colon = test system: HCC-2998 colon
HCT-116 colon = test system: HCT-116 colon
SN12C renal = test system: SN12C renal
T-47D breast = test system: T-47D breast
MDA-MB-435 = test system: MDA-MB-435
MDA-N = test system: MDA-N
CCRF-CEM leukemia = test system: CCRF-CEM leukemia
UACC-257 melanoma = test system: UACC-257 melanoma
786-0 renal = test system: 786-0 renal
SF-295 CNS = test system: SF-295 CNS
UO-31 renal = test system: UO-31 renal
K-562 leukemia = test system: K-562 leukemia
TK-10 renal = test system: TK-10 renal
U251 CNS = test system: U251 CNS
SNB-75 CNS = test system: SNB-75 CNS
ACHN renal = test system: ACHN renal
MOLT-4 leukemia = test system: MOLT-4 leukemia
BT-549 breast = test system: BT-549 breast
OVCAR-4 ovarian = test system: OVCAR-4 ovarian
SF-268 CNS = test system: SF-268 CNS
NCI-H23 lung = test system: NCI-H23 lung
SR leukemia = test system: SR leukemia
MDA-MB-231 breast = test system: MDA-MB-231 breast
RPMI-8226 leukemia = test system: RPMI-8226 leukemia
EKVX NSCLC = test system: EKVX NSCLC
IGROV1 ovarian = test system: IGROV1 ovarian
NCI-H226 lung = test system: NCI-H226 lung
HOP-62 NSCLC = test system: HOP-62 NSCLC
COLO 205 colon = test system: COLO 205 colon
SK-MEL-28 melanoma = test system: SK-MEL-28 melanoma

C=CN1CCN(c2ccccc2)P1(=O)Oc1ccccc1 (stereo not drawn)
TGI (KM12 colon): > 100 µM | TGI (HOP-92 NSCLC): > 100 µM | TGI (HCT-15 colon): > 100 µM | TGI (MCF7 breast): > 100 µM | TGI (OVCAR-3 ovarian): > 100 µM | TGI (SNB-19 CNS): > 100 µM | TGI (A498 renal): > 100 µM | TGI (HT29 colon): > 100 µM | TGI (RXF 393 renal): > 100 µM | TGI (HL-60(TB) leukemia): > 100 µM | TGI (LOX IMVI melanoma): > 100 µM | TGI (DU-145 prostate): > 100 µM | TGI (NCI/ADR-RES ovarian): > 100 µM | TGI (SK-MEL-2 melanoma): > 100 µM | TGI (CAKI-1 renal): > 100 µM | TGI (NCI-H522 lung): > 100 µM | TGI (OVCAR-8 ovarian): > 100 µM | TGI (SK-MEL-5 melanoma): > 100 µM | TGI (SF-539 CNS): > 100 µM | TGI (HS 578T breast): > 100 µM | TGI (NCI-H460 lung): > 100 µM | TGI (A549 NSCLC): > 100 µM | TGI (OVCAR-5 ovarian): > 100 µM | TGI (PC-3 prostate): > 100 µM | TGI (SK-OV-3 ovarian): > 100 µM | TGI (MALME-3M melanoma): > 100 µM | TGI (M14 melanoma): > 100 µM | TGI (UACC-62 melanoma): > 100 µM | TGI (SW-620 colon): > 100 µM | TGI (HCC-2998 colon): > 100 µM | TGI (HCT-116 colon): > 100 µM | TGI (SN12C renal): > 100 µM | TGI (T-47D breast): > 100 µM | TGI (MDA-MB-435): > 100 µM | TGI (MDA-N): > 100 µM | TGI (CCRF-CEM leukemia): > 100 µM | TGI (UACC-257 melanoma): > 100 µM | TGI (786-0 renal): > 100 µM | TGI (SF-295 CNS): > 100 µM | TGI (UO-31 renal): 92.8 µM | TGI (K-562 leukemia): > 100 µM | TGI (TK-10 renal): > 100 µM | TGI (U251 CNS): > 100 µM | TGI (SNB-75 CNS): > 100 µM | TGI (ACHN renal): > 100 µM | TGI (MOLT-4 leukemia): > 100 µM | TGI (BT-549 breast): > 100 µM | TGI (OVCAR-4 ovarian): > 100 µM | TGI (SF-268 CNS): > 100 µM | TGI (NCI-H23 lung): > 100 µM | TGI (SR leukemia): > 100 µM | TGI (MDA-MB-231 breast): > 100 µM | TGI (RPMI-8226 leukemia): > 100 µM | TGI (EKVX NSCLC): > 100 µM | TGI (IGROV1 ovarian): > 100 µM | TGI (NCI-H226 lung): > 100 µM | TGI (HOP-62 NSCLC): > 100 µM | TGI (COLO 205 colon): > 100 µM | TGI (SK-MEL-28 melanoma): > 100 µM

O=[N+]([O-])O
TGI (KM12 colon): > 100 µM | TGI (HOP-92 NSCLC): > 100 µM | TGI (HCT-15 colon): > 100 µM | TGI (MCF7 breast): > 100 µM | TGI (OVCAR-3 ovarian): > 100 µM | TGI (SNB-19 CNS): > 100 µM | TGI (A498 renal): > 100 µM | TGI (HT29 colon): > 100 µM | TGI (RXF 393 renal): > 100 µM | TGI (HL-60(TB) leukemia): > 100 µM | TGI (LOX IMVI melanoma): > 100 µM | TGI (DU-145 prostate): > 100 µM | TGI (NCI/ADR-RES ovarian): > 100 µM | TGI (SK-MEL-2 melanoma): > 100 µM | TGI (CAKI-1 renal): > 100 µM | TGI (NCI-H522 lung): > 100 µM | TGI (OVCAR-8 ovarian): > 100 µM | TGI (SK-MEL-5 melanoma): > 100 µM | TGI (SF-539 CNS): > 100 µM | TGI (HS 578T breast): > 100 µM | TGI (NCI-H460 lung): > 100 µM | TGI (A549 NSCLC): > 100 µM | TGI (OVCAR-5 ovarian): > 100 µM | TGI (PC-3 prostate): > 100 µM | TGI (SK-OV-3 ovarian): > 100 µM | TGI (MALME-3M melanoma): > 100 µM | TGI (M14 melanoma): > 100 µM | TGI (UACC-62 melanoma): > 100 µM | TGI (SW-620 colon): > 100 µM | TGI (HCC-2998 colon): > 100 µM | TGI (HCT-116 colon): > 100 µM | TGI (SN12C renal): > 100 µM | TGI (T-47D breast): > 100 µM | TGI (MDA-MB-435): > 100 µM | TGI (MDA-N): > 100 µM | TGI (CCRF-CEM leukemia): > 100 µM | TGI (UACC-257 melanoma): > 100 µM | TGI (786-0 renal): > 100 µM | TGI (SF-295 CNS): > 100 µM | TGI (UO-31 renal): > 100 µM | TGI (K-562 leukemia): > 100 µM | TGI (TK-10 renal): > 100 µM | TGI (U251 CNS): > 100 µM | TGI (SNB-75 CNS): > 100 µM | TGI (ACHN renal): > 100 µM | TGI (MOLT-4 leukemia): > 100 µM | TGI (BT-549 breast): > 100 µM | TGI (OVCAR-4 ovarian): > 100 µM | TGI (SF-268 CNS): > 100 µM | TGI (NCI-H23 lung): > 100 µM | TGI (SR leukemia): > 100 µM | TGI (MDA-MB-231 breast): > 100 µM | TGI (RPMI-8226 leukemia): > 100 µM | TGI (EKVX NSCLC): > 100 µM | TGI (IGROV1 ovarian): > 100 µM | TGI (NCI-H226 lung): > 100 µM | TGI (HOP-62 NSCLC): > 100 µM | TGI (COLO 205 colon): > 100 µM | TGI (SK-MEL-28 melanoma): > 100 µM
